Data from ChEMBL document CHEMBL5653615 (J Biol Chem, 2013).

How the values were obtained:
[1] = molecular target: T1, Tyrosine-protein kinase ITK/TSK (Homo sapiens) (UniProt Q08881); test: Inhibition of human ITK at 18.6 nM by HotSpot assay relative to control
T1 sequence (whole entry): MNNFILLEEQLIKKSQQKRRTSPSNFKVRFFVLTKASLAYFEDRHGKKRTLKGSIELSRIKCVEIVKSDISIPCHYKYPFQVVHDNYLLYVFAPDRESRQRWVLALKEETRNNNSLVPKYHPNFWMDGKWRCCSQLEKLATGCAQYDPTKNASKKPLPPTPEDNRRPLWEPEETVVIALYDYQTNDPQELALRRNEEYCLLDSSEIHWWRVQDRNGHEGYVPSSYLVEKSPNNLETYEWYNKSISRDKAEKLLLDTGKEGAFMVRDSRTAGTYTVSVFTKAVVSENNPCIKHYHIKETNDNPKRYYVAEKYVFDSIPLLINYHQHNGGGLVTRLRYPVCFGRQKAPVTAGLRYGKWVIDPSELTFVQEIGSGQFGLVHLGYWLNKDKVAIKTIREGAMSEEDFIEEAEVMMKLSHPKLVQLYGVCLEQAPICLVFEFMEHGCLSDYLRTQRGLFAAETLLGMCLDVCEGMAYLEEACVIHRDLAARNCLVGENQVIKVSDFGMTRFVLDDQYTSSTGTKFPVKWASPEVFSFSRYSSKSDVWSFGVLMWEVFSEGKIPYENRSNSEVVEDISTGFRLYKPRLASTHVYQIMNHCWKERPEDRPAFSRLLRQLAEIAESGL

[2] = molecular target: T2, Mitogen-activated protein kinase kinase kinase kinase 2 (Homo sapiens) (UniProt Q12851); test: Inhibition of human GCK at 18.6 nM by HotSpot assay relative to control
T2 sequence (whole entry): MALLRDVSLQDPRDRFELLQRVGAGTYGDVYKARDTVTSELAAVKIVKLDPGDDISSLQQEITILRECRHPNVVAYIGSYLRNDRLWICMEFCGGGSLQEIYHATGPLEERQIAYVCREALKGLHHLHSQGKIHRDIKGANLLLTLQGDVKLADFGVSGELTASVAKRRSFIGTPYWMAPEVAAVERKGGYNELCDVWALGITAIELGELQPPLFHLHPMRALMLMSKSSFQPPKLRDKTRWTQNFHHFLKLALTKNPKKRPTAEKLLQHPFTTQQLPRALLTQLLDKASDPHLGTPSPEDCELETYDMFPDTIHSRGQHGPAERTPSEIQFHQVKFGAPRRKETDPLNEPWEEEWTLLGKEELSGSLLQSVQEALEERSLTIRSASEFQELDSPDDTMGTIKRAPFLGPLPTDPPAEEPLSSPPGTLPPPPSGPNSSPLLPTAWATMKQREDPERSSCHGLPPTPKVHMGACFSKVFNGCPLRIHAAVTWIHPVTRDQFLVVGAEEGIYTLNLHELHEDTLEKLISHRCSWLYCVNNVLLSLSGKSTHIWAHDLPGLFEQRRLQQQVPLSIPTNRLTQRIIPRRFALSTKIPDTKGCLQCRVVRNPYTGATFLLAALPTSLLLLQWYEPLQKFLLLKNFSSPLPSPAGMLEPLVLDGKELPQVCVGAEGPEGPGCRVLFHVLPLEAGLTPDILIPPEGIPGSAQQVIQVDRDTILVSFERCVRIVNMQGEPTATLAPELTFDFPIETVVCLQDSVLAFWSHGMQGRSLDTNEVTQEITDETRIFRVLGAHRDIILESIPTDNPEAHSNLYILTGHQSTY

[3] = molecular target: Tyrosine-protein kinase Srms (Homo sapiens) (UniProt Q9H3Y6); test: Inhibition of human SRMS at 18.6 nM by HotSpot assay relative to control
[4] = molecular target: Maternal embryonic leucine zipper kinase (Homo sapiens) (UniProt Q14680); test: Inhibition of human MELK at 18.6 nM by HotSpot assay relative to control
[5] = molecular target: T3, MAP/microtubule affinity-regulating kinase 4 (Homo sapiens) (UniProt Q96L34); test: Inhibition of human MARK4 at 18.6 nM by HotSpot assay relative to control
T3 sequence (whole entry): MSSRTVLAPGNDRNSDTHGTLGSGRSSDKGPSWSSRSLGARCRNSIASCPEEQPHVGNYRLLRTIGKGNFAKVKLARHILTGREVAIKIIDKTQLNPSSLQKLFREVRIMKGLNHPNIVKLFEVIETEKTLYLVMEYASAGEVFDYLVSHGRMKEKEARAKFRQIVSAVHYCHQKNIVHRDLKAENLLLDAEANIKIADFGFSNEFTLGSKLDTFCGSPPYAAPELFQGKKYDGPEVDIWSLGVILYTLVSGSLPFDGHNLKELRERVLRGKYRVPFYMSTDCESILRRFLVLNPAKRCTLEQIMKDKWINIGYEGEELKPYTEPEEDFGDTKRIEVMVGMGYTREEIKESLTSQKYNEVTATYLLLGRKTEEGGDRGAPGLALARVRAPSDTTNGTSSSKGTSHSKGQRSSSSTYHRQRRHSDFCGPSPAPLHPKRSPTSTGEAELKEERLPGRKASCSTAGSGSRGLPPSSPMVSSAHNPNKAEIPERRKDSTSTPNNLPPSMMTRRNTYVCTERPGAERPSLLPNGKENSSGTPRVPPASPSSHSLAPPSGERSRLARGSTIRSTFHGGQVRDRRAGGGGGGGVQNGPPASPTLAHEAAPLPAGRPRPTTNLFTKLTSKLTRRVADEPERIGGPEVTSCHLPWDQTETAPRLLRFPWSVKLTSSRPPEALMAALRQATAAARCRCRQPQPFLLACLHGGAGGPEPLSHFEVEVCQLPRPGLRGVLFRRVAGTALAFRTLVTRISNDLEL

[6] = molecular target: T4, Dual specificity mitogen-activated protein kinase kinase 6 (Homo sapiens) (UniProt P52564); test: Inhibition of human MKK6 at 18.6 nM by HotSpot assay relative to control
T4 sequence (whole entry): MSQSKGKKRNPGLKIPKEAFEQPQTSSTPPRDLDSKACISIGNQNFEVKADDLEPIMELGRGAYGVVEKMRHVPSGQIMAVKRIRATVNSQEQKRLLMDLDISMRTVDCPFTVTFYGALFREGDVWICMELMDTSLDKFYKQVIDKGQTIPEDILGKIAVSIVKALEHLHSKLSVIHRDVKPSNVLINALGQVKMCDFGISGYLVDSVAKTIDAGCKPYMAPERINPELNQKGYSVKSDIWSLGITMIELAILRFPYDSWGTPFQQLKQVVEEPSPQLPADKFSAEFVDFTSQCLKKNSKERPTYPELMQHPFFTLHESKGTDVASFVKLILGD

[7] = molecular target: Serine/threonine-protein kinase PAK 4 (Homo sapiens) (UniProt O96013); test: Inhibition of human PAK4 at 1.82 nM by HotSpot assay relative to control
[8] = molecular target: T2, Mitogen-activated protein kinase kinase kinase kinase 2 (Homo sapiens); test: Inhibition of human GCK at 1.82 nM by HotSpot assay relative to control
[9] = molecular target: Casein kinase II subunit alpha' (Homo sapiens) (UniProt P19784); test: Inhibition of human CK2a2 at 1.82 nM by HotSpot assay relative to control
Chain of Casein kinase II subunit alpha' (Homo sapiens) (P19784 whole entry, looked up): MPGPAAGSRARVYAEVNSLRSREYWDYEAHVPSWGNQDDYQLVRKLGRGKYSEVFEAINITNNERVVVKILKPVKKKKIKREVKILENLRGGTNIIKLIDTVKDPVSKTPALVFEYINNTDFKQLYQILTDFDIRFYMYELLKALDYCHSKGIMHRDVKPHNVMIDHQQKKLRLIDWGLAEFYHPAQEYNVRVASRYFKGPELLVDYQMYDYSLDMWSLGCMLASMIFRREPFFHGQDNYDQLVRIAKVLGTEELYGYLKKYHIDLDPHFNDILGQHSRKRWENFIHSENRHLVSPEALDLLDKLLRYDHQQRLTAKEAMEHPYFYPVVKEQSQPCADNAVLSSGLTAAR

Chain of Tyrosine-protein kinase Srms (Homo sapiens) (Q9H3Y6 whole entry): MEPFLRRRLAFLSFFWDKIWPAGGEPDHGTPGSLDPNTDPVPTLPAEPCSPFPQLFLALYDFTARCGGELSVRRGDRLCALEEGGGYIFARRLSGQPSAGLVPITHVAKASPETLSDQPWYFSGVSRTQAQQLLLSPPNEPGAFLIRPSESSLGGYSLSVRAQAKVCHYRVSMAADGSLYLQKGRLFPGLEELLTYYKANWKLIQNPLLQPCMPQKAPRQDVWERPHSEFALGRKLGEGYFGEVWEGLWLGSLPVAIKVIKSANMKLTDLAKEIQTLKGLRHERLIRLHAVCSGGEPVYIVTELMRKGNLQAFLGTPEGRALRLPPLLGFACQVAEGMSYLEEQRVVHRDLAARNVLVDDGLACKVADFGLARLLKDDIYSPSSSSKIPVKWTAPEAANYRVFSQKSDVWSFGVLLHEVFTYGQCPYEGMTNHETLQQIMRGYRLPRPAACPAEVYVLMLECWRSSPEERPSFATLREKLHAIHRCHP
Chain of Serine/threonine-protein kinase PAK 4 (Homo sapiens) (O96013 whole entry, looked up): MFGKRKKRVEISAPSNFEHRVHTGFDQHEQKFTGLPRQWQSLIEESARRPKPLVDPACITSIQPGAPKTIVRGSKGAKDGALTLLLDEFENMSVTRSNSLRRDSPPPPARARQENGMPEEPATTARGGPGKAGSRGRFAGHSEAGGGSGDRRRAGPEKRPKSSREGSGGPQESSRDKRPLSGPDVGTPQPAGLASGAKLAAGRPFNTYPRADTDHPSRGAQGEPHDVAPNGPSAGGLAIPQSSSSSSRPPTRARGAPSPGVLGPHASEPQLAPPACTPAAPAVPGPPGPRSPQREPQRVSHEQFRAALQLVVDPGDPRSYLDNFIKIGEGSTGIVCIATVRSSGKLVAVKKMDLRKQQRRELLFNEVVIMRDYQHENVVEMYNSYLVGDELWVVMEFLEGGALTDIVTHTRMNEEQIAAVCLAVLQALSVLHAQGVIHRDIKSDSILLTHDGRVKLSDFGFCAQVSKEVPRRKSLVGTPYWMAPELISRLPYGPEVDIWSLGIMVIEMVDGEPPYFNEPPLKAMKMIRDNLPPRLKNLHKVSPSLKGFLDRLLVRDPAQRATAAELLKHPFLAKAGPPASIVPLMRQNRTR
Chain of Maternal embryonic leucine zipper kinase (Homo sapiens) (Q14680 whole entry, looked up): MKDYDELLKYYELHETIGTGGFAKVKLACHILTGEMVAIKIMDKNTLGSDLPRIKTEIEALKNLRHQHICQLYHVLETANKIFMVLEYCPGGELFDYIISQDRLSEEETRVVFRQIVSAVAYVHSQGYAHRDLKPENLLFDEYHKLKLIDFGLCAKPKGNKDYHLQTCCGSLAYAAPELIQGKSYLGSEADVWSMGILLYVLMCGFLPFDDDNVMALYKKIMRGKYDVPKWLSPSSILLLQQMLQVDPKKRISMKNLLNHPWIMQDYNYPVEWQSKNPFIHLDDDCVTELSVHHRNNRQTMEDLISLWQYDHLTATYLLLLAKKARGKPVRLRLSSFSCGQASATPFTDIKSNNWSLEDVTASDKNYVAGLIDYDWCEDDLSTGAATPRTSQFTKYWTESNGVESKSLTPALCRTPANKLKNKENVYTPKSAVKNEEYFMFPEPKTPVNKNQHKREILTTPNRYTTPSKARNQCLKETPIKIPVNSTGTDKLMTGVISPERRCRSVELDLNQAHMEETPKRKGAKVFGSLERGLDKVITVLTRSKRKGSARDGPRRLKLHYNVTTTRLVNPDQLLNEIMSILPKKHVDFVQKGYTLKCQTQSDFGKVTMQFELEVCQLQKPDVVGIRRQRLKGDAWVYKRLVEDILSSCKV

inhibition [1]	inhibition [2]	inhibition [3]	inhibition [4]	inhibition [5]	inhibition [6]	inhibition [7]	inhibition [8]	inhibition [9]	SMILES
-7.85%	1.94%	-0.53%	-2.08%	7.12%	1.97%				C[C@]1(O)C[C@@H](c2nc(-c3ccc4ccc(-c5ccccc5)nc4c3)c3c(N)nccn32)C1
						-3.15%	-0.04%	11.7%	C[C@@]1(C(=O)Nc2ccc(F)nc2)CCCN1c1nc(Nc2cc(C3CC3)n[nH]2)c2cccn2n1
